Data published in patent US8865698B2, “Method of treatment using substituted pyrazolo[1,5-a]pyrimidine compounds” (Array BioPharma Inc., priority 2008, dated 2014).
Structures can show the parent of a compound that is named as a salt.

Biological target: histidine-tagged recombinant human TrkA, cytoplasmic domain (Homo sapiens (Human), UniProt P04629)
Test: TrkA ELISA Assay
Type: biochemical
Conditions: 2.5 nM TrkA, 500 μM ATP, 25 minutes; read-out: TrkA Elisa Enzyme IC50
Protocol: An enzyme-linked immunosorbant assay (ELISA) was used to assess TrkA kinase activity in the presence of inhibitors. Immulon 4HBX 384-well microtiter plates (Thermo part #8755) were coated with a 0.025 mg/mL solution of poly (Glu, Ala, Tyr; 6:3:1; Sigma P3899). Various concentrations of test compound, 2.5 nM TrkA (Invitrogen Corp., histidine-tagged recombinant human TrkA, cytoplasmic domain), and 500 μM ATP were incubated for 25 minutes at ambient temperature in the coated plates while shaking. The assay buffer consisted of 25 mM MOPS pH 7.5, 0.005% (v/v) Triton X-100 and 5 mM MgCl2. The reaction mixture was removed from the plate by washing with PBS containing 0.1% (v/v) Tween 20. The phosphorylated reaction product was detected using 0.2 μg/mL of a phosphotyrosine specific monoclonal antibody (clone PY20) conjugated to horseradish peroxidase in conjunction with the TMB Peroxidase Substrate System (KPL). After the addition of 1M phosphoric acid, the chromogenic substrate color intensity was quantitated via absorbance at 450 nm. IC50 values were calculated using either a 4 or 5-parameter logistic curve fit.

histidine-tagged recombinant human TrkA, cytoplasmic domain, sequence (P04629 440-796): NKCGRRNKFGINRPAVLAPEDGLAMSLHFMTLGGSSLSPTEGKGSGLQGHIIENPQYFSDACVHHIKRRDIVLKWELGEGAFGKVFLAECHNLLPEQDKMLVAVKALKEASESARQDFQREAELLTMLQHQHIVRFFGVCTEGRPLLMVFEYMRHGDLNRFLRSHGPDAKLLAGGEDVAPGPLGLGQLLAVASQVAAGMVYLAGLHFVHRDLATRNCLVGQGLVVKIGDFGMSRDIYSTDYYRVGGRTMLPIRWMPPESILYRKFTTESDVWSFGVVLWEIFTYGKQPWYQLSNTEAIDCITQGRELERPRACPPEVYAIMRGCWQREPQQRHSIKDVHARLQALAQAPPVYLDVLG

Row | SMILES | IC50 [µM]
1 | C[C@H]1CN(C(=O)Nc2cnn3ccc(N4CCC[C@@H]4c4cc(F)ccc4F)nc23)CCN1C(=O)OC(C)(C)C [Example 30, (S)-tert-butyl 4-(5-((R)-2-(2,5-difluorophenyl)pyrrolidin-1-yl)pyrazolo[1,5-a]pyrimidin-3-ylcarbamoyl)-2-methylpiperazine-1-carboxylate] | 0.154
2 | O=C(Nc1cnn2ccc(N3CCC[C@@H]3c3cc(F)ccc3C(F)F)nc12)N1CCC(O)CC1 [Example 38, (R)—N-(5-(2-(2-(difluoromethyl)-5-fluorophenyl)pyrrolidin-1-yl)pyrazolo[1,5-a]pyrimidin-3-yl)-4-hydroxypiperidine-1-carboxamide] | 0.0855
3 | Cc1cnccc1C(=O)Nc1cnn2ccc(N3CCC[C@@H]3c3cccc(F)c3)nc12 [Example 80, (R)—N-(5-(2-(3-fluorophenyl)pyrrolidin-1-yl)pyrazolo[1,5-a]pyrimidin-3-yl)-3-methylisonicotinamide] | 0.32
4 | O=C(Nc1cnn2ccc(N3CC(F)(F)C[C@@H]3c3cccc(F)c3)nc12)N1CC(O)C1 [Example 7, (R)—N-(5-(4,4-difluoro-2-(3-fluorophenyl)pyrrolidin-1-yl)pyrazolo[1,5-a]pyrimidin-3-yl)-3-hydroxyazetidine-1-carboxamide] | 0.0775
5 | CC(C)(C)NC(=O)Nc1cnn2ccc(N3CCC[C@@H]3c3cc(F)ccc3F)nc12 [Example 3, (R)-1-tert-butyl-3-(5-(2-(2,5-difluorophenyl)pyrrolidin-1-yl)pyrazolo[1,5-a]pyrimidin-3-yl)urea] | 0.0222
6 | O=C(Nc1cnn2ccc(N3CCC[C@@H]3c3cc(F)ccc3F)nc12)[C@H]1CC[C@H](O)C1 [Example 95, (1S,3S)—N-(5-((R)-2-(2,5-difluorophenyl)pyrrolidin-1-yl)pyrazolo[1,5-a]pyrimidin-3-yl)-3-hydroxycyclopentanecarboxamide] | 0.0425
7 | CC1(c2cccc(F)c2)CCCN1c1ccn2ncc(NC(=O)N3CC(O)C3)c2n1 (stereo not shown) [Example 10, N-(5-(2-(3-fluorophenyl)-2-methylpyrrolidin-1-yl)pyrazolo[1,5-a]pyrimidin-3-yl)-3-hydroxyazetidine-1-carboxamide] | 0.188
8 | CN1CCN(C(=O)Nc2cnn3ccc(N4CCC[C@@H]4c4cc(F)ccc4F)nc23)CC1 [Example 28, (R)—N-(5-(2-(2,5-difluorophenyl)pyrrolidin-1-yl)pyrazolo[1,5-a]pyrimidin-3-yl)-4-methylpiperazine-1-carboxamide] | 0.0574
9 | C[C@H]1CN(C(=O)Nc2cnn3ccc(N4CCC[C@@H]4c4cc(F)ccc4Cl)nc23)CCN1 [Example 25, (S)—N-(5-((R)-2-(2-chloro-5-fluorophenyl)pyrrolidin-1-yl)pyrazolo[1,5-a]pyrimidin-3-yl)-3-methylpiperazine-1-carboxamide hydrochloride] | 0.0823
10 | CC1(C(=O)Nc2cnn3ccc(N4CCC[C@@H]4c4cc(F)ccc4Cl)nc23)CCNCC1 [Example 49, (R)—N-(5-(2-(2-chloro-5-fluorophenyl)pyrrolidin-1-yl)pyrazolo[1,5-a]pyrimidin-3-yl)-4-methylpiperidine-4-carboxamide hydrochloride] | 0.0292
11 | O=C(Nc1cnn2ccc(N3CCC[C@@H]3c3cc(F)ccc3F)nc12)C(=O)N1CCOCC1 [Example 103, (R)—N-(5-(2-(2,5-difluorophenyl)pyrrolidin-1-yl)pyrazolo[1,5-a]pyrimidin-3-yl)-2-morpholino-2-oxoacetamide] | 0.0824
12 | CC1CN(C(=O)Nc2cnn3ccc(N4CCC[C@@H]4c4cc(F)ccc4F)nc23)CC(C)N1 (stereo partly shown) [Example 29] | 0.098
13 | O=C(Nc1cnn2ccc(N3CCC[C@@H]3c3cc(F)ccc3F)nc12)N1CCOCC1 [Example 13, (R)—N-(5-(2-(2,5-difluorophenyl)pyrrolidin-1-yl)pyrazolo[1,5-a]pyrimidin-3-yl)morpholine-4-carboxamide] | 0.0322
14 | CC(C)(C)OC(=O)N1CC(C(=O)Nc2cnn3ccc(N4CCC[C@@H]4c4cc(F)ccc4Cl)nc23)C1 [Example 46, (R)-tert-butyl 3-(5-(2-(2-chloro-5-fluorophenyl)pyrrolidin-1-yl)pyrazolo[1,5-a]pyrimidin-3-ylcarbamoyl)azetidine-1-carboxylate] | 0.0373

Stronger by IC50, values ahead:

Row | IC50 [µM] | SMILES
15 | 0.0207 | O=C(Nc1cnn2ccc(N3CCC[C@@H]3c3cc(F)ccc3F)nc12)N1CC(O)C1 [Example 1, (R)—N-(5-(2-(2,5-difluorophenyl)pyrrolidin-1-yl)pyrazolo[1,5-a]pyrimidin-3-yl)-3-hydroxyazetidine-1-carboxamide]
16 | 0.0197 | CC1(O)CN(C(=O)Nc2cnn3ccc(N4CCC[C@@H]4c4cc(F)ccc4F)nc23)C1 [Example 17, (R)—N-(5-(2-(2,5-difluorophenyl)pyrrolidin-1-yl)pyrazolo[1,5-a]pyrimidin-3-yl)-3-hydroxy-3-methylazetidine-1-carboxamide]
17 | 0.0192 | Cn1nc(C(=O)Nc2cnn3ccc(N4CCC[C@@H]4c4cccc(F)c4)nc23)ccc1=O [Example 6, (R)—N-(5-(2-(3-fluorophenyl)pyrrolidin-1-yl)pyrazolo[1,5-a]pyrimidin-3-yl)-1-methyl-6-oxo-1,6-dihydropyridazine-3-carboxamide]
18 | 0.0146 | O=C(Nc1cnn2ccc(N3CCC[C@@H]3c3cc(F)ccc3C(F)(F)F)nc12)N1CCC[C@H](O)C1 [Example 87, (S)—N-(5-((R)-2-(5-fluoro-2-(trifluoromethyl)phenyl)pyrrolidin-1-yl)pyrazolo[1,5-a]pyrimidin-3-yl)-3-hydroxypiperidine-1-carboxamide]
19 | 0.0115 | CC1(O)CN(C(=O)Nc2cnn3ccc(N4CCC[C@@H]4c4cc(F)ccc4Cl)nc23)C1 [Example 22, (R)—N-(5-(2-(2-chloro-5-fluorophenyl)pyrrolidin-1-yl)pyrazolo[1,5-a]pyrimidin-3-yl)-3-hydroxy-3-methylazetidine-1-carboxamide]
20 | 0.0113 | COc1ccc(F)cc1[C@H]1CCCN1c1ccn2ncc(NC(=O)N3CC[C@H](O)C3)c2n1 [Example 90, (S)—N-(5-((R)-2-(5-fluoro-2-methoxyphenyl)pyrrolidin-1-yl)pyrazolo[1,5-a]pyrimidin-3-yl)-3-hydroxypyrrolidine-1-carboxamide]
21 | 0.0102 | COc1ccc(F)cc1[C@H]1CCCN1c1ccn2ncc(NC(=O)N3CCC[C@H](O)C3)c2n1 [Example 91, (S)—N-(5-((R)-2-(5-fluoro-2-methoxyphenyl)pyrrolidin-1-yl)pyrazolo[1,5-a]pyrimidin-3-yl)-3-hydroxypiperidine-1-carboxamide]
22 | 0.0085 | Cn1ccc(C(=O)Nc2cnn3ccc(N4CCC[C@@H]4c4cccc(F)c4)nc23)n1 [Example 73, (R)—N-(5-(2-(3-fluorophenyl)pyrrolidin-1-yl)pyrazolo[1,5-a]pyrimidin-3-yl)-1-methyl-1H-pyrazole-3-carboxamide]
23 | 0.0075 | CC(C)(CO)C(=O)Nc1cnn2ccc(N3CCC[C@@H]3c3cc(F)ccc3F)nc12 [Example 64, (R)—N-(5-(2-(2,5-difluorophenyl)pyrrolidin-1-yl)pyrazolo[1,5-a]pyrimidin-3-yl)-3-hydroxy-2,2-dimethylpropanamide]
24 | 0.0074 | COc1cccc(C(=O)Nc2cnn3ccc(N4CCC[C@@H]4c4cccc(F)c4)nc23)n1 [Example 75, (R)—N-(5-(2-(3-fluorophenyl)pyrrolidin-1-yl)pyrazolo[1,5-a]pyrimidin-3-yl)-6-methoxypicolinamide]
25 | 0.0063 | CC(C)(C)C(=O)Nc1cnn2ccc(N3CCC[C@@H]3c3cc(F)ccc3F)nc12 [Example 45, (R)—N-(5-(2-(2,5-difluorophenyl)pyrrolidin-1-yl)pyrazolo[1,5-a]pyrimidin-3-yl)pivalamide]
26 | 0.0057 | O=C(Nc1cnn2ccc(N3CCC[C@@H]3c3cc(F)ccc3C(F)(F)F)nc12)N1CC[C@@H](O)C1 [Example 85, (R)—N-(5-((R)-2-(5-fluoro-2-(trifluoromethyl)phenyl)pyrrolidin-1-yl)pyrazolo[1,5-a]pyrimidin-3-yl)-3-hydroxypyrrolidine-1-carboxamide]
27 | 0.005 | O=C(Nc1ccccc1)Nc1cnn2ccc(N3CCC[C@@H]3c3cc(F)ccc3F)nc12 [Example 4, (R)-1-(5-(2-(2,5-difluorophenyl)pyrrolidin-1-yl)pyrazolo[1,5-a]pyrimidin-3-yl)-3-phenylurea]
28 | 0.0042 | N#CC1(C(=O)Nc2cnn3ccc(N4CCC[C@@H]4c4cc(F)ccc4F)nc23)CC1 [Example 52, (R)-1-cyano-N-(5-(2-(2,5-difluorophenyl)pyrrolidin-1-yl)pyrazolo[1,5-a]pyrimidin-3-yl)cyclopropanecarboxamide]
29 | 0.0035 | O=C(Nc1cnn2ccc(N3CCC[C@@H]3c3cc(F)ccc3F)nc12)c1cccc(Cl)n1 [Example 71, (R)-6-chloro-N-(5-(2-(2,5-difluorophenyl)pyrrolidin-1-yl)pyrazolo[1,5-a]pyrimidin-3-yl)picolinamide]
30 | 0.0031 | CC(C)Nc1nc(C(=O)Nc2cnn3ccc(N4CCC[C@@H]4c4cc(F)ccc4F)nc23)cs1 [Example 55, (R)—N-(5-(2-(2,5-difluorophenyl)pyrrolidin-1-yl)pyrazolo[1,5-a]pyrimidin-3-yl)-2-(isopropylamino)thiazole-4-carboxamide]
31 | 0.0017 | Cc1cccnc1C(=O)Nc1cnn2ccc(N3CCC[C@@H]3c3cc(F)ccc3F)nc12 [Example 63, (R)—N-(5-(2-(2,5-difluorophenyl)pyrrolidin-1-yl)pyrazolo[1,5-a]pyrimidin-3-yl)-3-methylpicolinamide]
